Earlier results, collected in patent US10717749B2, “Macrocyclic sulfondiimine compounds” (BAYER PHARMA AKTIENGESELLSCHAFT, priority 2015, dated 2020).

Details: in vivo; cited from earlier work

## C[N+]1(C)[C@@H]2C[C@@H](OC(=O)C(O)(c3cccs3)c3cccs3)C[C@H]1[C@@H]1O[C@@H]12 [tiotropium]
  duration of protection against bronchospasms: more than 6 hours
